Converted amounts (≈) assume the structure as drawn.
Test system: Mycobacterium tuberculosis
Assay: Antitubercular activity against multi-drug-resistant Mycobacterium tuberculosis H37Rv clinical isolate after 28 days by 10 fold serial dilution method
Format: functional
Details: 672 h

Compound	MIC
Clc1ccc2nc(-c3ccc(Oc4c(-c5ccc(Br)cc5)nc5ccc(Cl)cc5c4-c4ccccc4)cc3)cc(-c3ccccc3)c2c1	2.2 µM (≈ 1.59 µg/mL)
CC[C@@H](CO)NCCN[C@@H](CC)CO [ETHAMBUTOL]	7.6 µM (≈ 1.55 µg/mL)
CC(=O)c1ccc(Oc2c(-c3cccc(Br)c3)nc3ccc(Cl)cc3c2-c2ccccc2)cc1	11.8 µM (≈ 6.24 µg/mL)
Clc1ccc2nc(-c3ccc(Oc4c(-c5ccccc5)nc5ccc(Cl)cc5c4-c4ccccc4)cc3)cc(-c3ccccc3)c2c1	19.4 µM (≈ 12.5 µg/mL)
Cc1ccc(-c2nc3ccc(Cl)cc3c(-c3ccccc3)c2Oc2ccc(-c3cc(-c4ccccc4)c4cc(Cl)ccc4n3)cc2)cc1	37.9 µM (≈ 25 µg/mL)
NNC(=O)c1ccncc1 [ISONIAZID]	0.4 µM (≈ 0.0549 µg/mL)
CO[C@H]1/C=C/O[C@@]2(C)Oc3c(C)c(O)c4c(O)c(c(/C=N/N5CCN(C)CC5)c(O)c4c3C2=O)NC(=O)/C(C)=C\C=C\[C@H](C)[C@H](O)[C@@H](C)[C@@H](O)[C@@H](C)[C@H](OC(C)=O)[C@@H]1C [RIFAMPIN]	0.1 µM (≈ 0.0823 µg/mL)
Clc1ccc2nc(-c3ccc(Oc4c(-c5ccc6ccccc6c5)nc5ccc(Cl)cc5c4-c4ccccc4)cc3)cc(-c3ccccc3)c2c1	35.9 µM (≈ 25 µg/mL)
c1ccc(-c2ccc(-c3nc4ccccc4c(-c4ccccc4)c3Oc3ccc(-c4cc(-c5ccccc5)c5ccccc5n4)cc3)cc2)cc1	19.1 µM (≈ 12.5 µg/mL)
CC(=O)c1ccc(Oc2c(-c3ccc4ccccc4c3)nc3ccc(Cl)cc3c2-c2ccccc2)cc1	50 µM (≈ 25 µg/mL)
c1ccc(-c2cc(-c3ccc(Oc4c(-c5cccc6ccccc56)nc5ccccc5c4-c4ccccc4)cc3)nc3ccccc23)cc1	39.8 µM (≈ 24.9 µg/mL)
COc1cccc(-c2nc3ccccc3c(-c3ccccc3)c2Oc2ccc(-c3cc(-c4ccccc4)c4ccccc4n3)cc2)c1	41.2 µM (≈ 25 µg/mL)
Clc1ccc(-c2nc3ccc(Cl)cc3c(-c3ccccc3)c2Oc2ccc(-c3cc(-c4ccccc4)c4cc(Cl)ccc4n3)cc2)cc1	4.6 µM (≈ 3.13 µg/mL)
Clc1cccc(-c2nc3ccccc3c(-c3ccccc3)c2Oc2ccc(-c3cc(-c4ccccc4)c4ccccc4n3)cc2)c1	20.5 µM (≈ 12.5 µg/mL)
c1ccc(-c2nc3ccccc3c(-c3ccccc3)c2Oc2ccc(-c3cc(-c4ccccc4)c4ccccc4n3)cc2)cc1	43.4 µM (≈ 25 µg/mL)
CC(=O)c1ccc(Oc2c(-c3ccccc3)nc3ccc(Cl)cc3c2-c2ccccc2)cc1	55.6 µM (≈ 25 µg/mL)
Cc1ccc(-c2nc3ccccc3c(-c3ccccc3)c2Oc2ccc(-c3cc(-c4ccccc4)c4ccccc4n3)cc2)cc1	42.3 µM (≈ 25 µg/mL)
CC(=O)c1ccc(Oc2c(-c3ccc(C)cc3)nc3ccc(Cl)cc3c2-c2ccccc2)cc1	53.8 µM (≈ 25 µg/mL)
c1ccc(-c2cc(-c3ccc(Oc4c(-c5ccc6ccccc6c5)nc5ccccc5c4-c4ccccc4)cc3)nc3ccccc23)cc1	39.9 µM (≈ 25 µg/mL)
Clc1ccc2nc(-c3ccc(Oc4c(-c5cccc(Br)c5)nc5ccc(Cl)cc5c4-c4ccccc4)cc3)cc(-c3ccccc3)c2c1	1.1 µM (≈ 0.797 µg/mL)
Brc1cccc(-c2nc3ccccc3c(-c3ccccc3)c2Oc2ccc(-c3cc(-c4ccccc4)c4ccccc4n3)cc2)c1	4.7 µM (≈ 3.08 µg/mL)
Clc1ccc(-c2nc3ccccc3c(-c3ccccc3)c2Oc2ccc(-c3cc(-c4ccccc4)c4ccccc4n3)cc2)cc1	20.5 µM (≈ 12.5 µg/mL)
Brc1ccc(-c2nc3ccccc3c(-c3ccccc3)c2Oc2ccc(-c3cc(-c4ccccc4)c4ccccc4n3)cc2)cc1	19.1 µM (≈ 12.5 µg/mL)
CC(=O)c1ccc(Oc2c(-c3ccc(Br)cc3)nc3ccc(Cl)cc3c2-c2ccccc2)cc1	47.3 µM (≈ 25 µg/mL)
NC(=O)c1cnccn1 [PYRAZINAMIDE]	50.8 µM (≈ 6.25 µg/mL)
COc1ccc(-c2nc3ccccc3c(-c3ccccc3)c2Oc2ccc(-c3cc(-c4ccccc4)c4ccccc4n3)cc2)cc1	41.2 µM (≈ 25 µg/mL)
CC(=O)c1ccc(Oc2c(-c3ccc(Cl)cc3)nc3ccc(Cl)cc3c2-c2ccccc2)cc1	51.6 µM (≈ 25 µg/mL)

Test system: Mycobacterium tuberculosis
Assay: Ratio of Ciprofloxacin MIC to compound MIC for multi-drug-resistant Mycobacterium tuberculosis H37Rv clinical isolate
Format: functional
Details: not given

Compound	Ratio
Clc1ccc2nc(-c3ccc(Oc4c(-c5ccc(Br)cc5)nc5ccc(Cl)cc5c4-c4ccccc4)cc3)cc(-c3ccccc3)c2c1	2.14
Clc1ccc2nc(-c3ccc(Oc4c(-c5cccc(Br)c5)nc5ccc(Cl)cc5c4-c4ccccc4)cc3)cc(-c3ccccc3)c2c1	4.27

Test system: Mycobacterium tuberculosis
Assay: Ratio of Ethambutol MIC to compound MIC for multi-drug-resistant Mycobacterium tuberculosis H37Rv clinical isolate
Format: functional
Details: not given

Compound	Ratio
Clc1ccc2nc(-c3ccc(Oc4c(-c5ccc(Br)cc5)nc5ccc(Cl)cc5c4-c4ccccc4)cc3)cc(-c3ccccc3)c2c1	3.45
